According to patent US10889606B2, “Biflavone-iron complex, preparation method and application thereof” (NANJING FORESTRY UNIVERSITY, priority 2017, dated 2021):
pIC50: −log10 of the molar value.

Assays:
[1] = ABTS method, ABTS^+. free radical scavenging; settings: read-out: IC50 for scavenging ABTS^+. free radicals, 25° C., 5 min, 730 nm
Method: The free radical scavenging abilities of the Ame and the Ame-Fe complex were studied by pyrogallol auto-oxidation method and ABTS method with the following steps:
Within a certain range, the scavenging rate is linear with the concentration. The curve of the scavenging rate and the concentration (c) is plotted in the present invention to obtain a corresponding linear equation, and the maximum half-inhibitory concentration (IC50 value) is calculated.

herring sperm DNA (fDNA) = test: Interaction with herring sperm DNA (fDNA) by UV-vis spectroscopy, fluorescence spectroscopy and viscosity method; format: binding; settings: UV-vis, fluorescence (fDNA-EB system), viscosity
Text: UV-vis spectroscopy, fluorescence spectroscopy and viscosity method are used to study the interaction between the Ame/Ame-Fe complex and herring sperm DNA (fDNA) to further reveal the mechanism of antitumor activity, the obtained spectra are shown in FIGS. 7-11. […] Thereby, it can be speculated that the mechanism of antitumor activity of the Ame and its complex may be that Ame or the complex thereof enters the interior of the cell and intercalates with the DNA strand to cause apoptosis. Since the interaction of the complex with DNA is stronger than of the Ame, the antitumor activity thereof is also stronger than of the Ame.

[2] = Pyrogallol auto-oxidation method, O2^−. free radical scavenging; settings: Tris-HCl pH 8.20, 25° C., 322 nm, read-out: IC50 to scavenge O2^−. free radical
Method: (1) Pyrogallol Auto-Oxidation Method
Determination of auto-oxidation rate V0 of pyrogallol: 2 mL Tris-HCl buffer (pH=8.20) was added to a 10 mL sample tube at 25° C., 100 μL, DMSO was added as a control, after adding 0.8 mL distilled water, 0.2 mL pyrogallol solution having a concentration of 2 mmol·L^−1 was added, the mixture was poured into a cuvette after mixing uniformly, the absorbance at 322 nm was measured with pure water as a blank, the A value was recorded every 10 s for a total of 4 min, linear regression was performed with t as the abscissa, and A as the ordinate, straight line slope thereof is V0, and the measurement was performed for three times to obtain an average value.
The free radical scavenging rate was calculated according to Formula 3. SR(%)=(1−v1/v0)×[…] (Formula 3)

Compound: O=c1cc(-c2ccc(O)c(-c3c(O)cc(O)c4c(=O)cc(-c5ccc(O)cc5)oc34)c2)oc2cc(O)cc(O)c12 [Ame, amentoflavone]
- pIC50 [1]: 4.68
- manner of interaction with fDNA (herring sperm DNA (fDNA)): in the intercalation manner
- pIC50 [2]: 4.63
